The values below come from US10329309B2, “3-(3H-imidazo[4,5-B]pyridin-2-yl)-1H-pyrazolo[4,3-B]pyridines and therapeutic uses thereof” (Samumed, LLC, priority 2015, dated 2019).

Experiment [1] relates to primary human mesenchymal stem cells (hMSCs). Nature of the experiment: Induction of chondrogenesis in primary human mesenchymal stem cells (nodule imaging, Rhodamine B/Nile Red). The settings on record: hMSC chondrogenesis; for Emax: TGF-β3 as positive control, read-out: Max. Activity as % TGF-β3 activity; for EC50: concentration required to induce 50% levels of chondrogenesis vs TGF-β3, read-out: Conc (nM) of 50% TGF-β3 activity. Type of experiment: cell-based. Here is the method:
Representative compounds were screened using primary human mesenchymal stem cells (hMSCs) to determine their ability to induce chondrogenesis (process by which cartilage is developed).
Primary human mesenchymal stem cells (hMSCs) were purchased from Lonza (Walkersville, Md.) and expanded in Mesenchymal Stem Cell Growth Media (Lonza). Cells between passage 3 and 6 were used for the experiments.
Each compound was dissolved in DMSO as a 10 mM stock and used to prepare compound source plates. For the 96 well assay, serial dilution (1:3, 6-point dose-response curves from 2700 nM to 10 nM) and compound transfer was performed using the ECHO 550 (Labcyte, Sunnyvale, Calif.) into 96-well clear bottom assay plates (Greiner Bio-One) with appropriate DMSO backfill for a final DMSO concentration of 0.03%. hMSCs were plated at 20,000 cells/well in 250 μL/well Incomplete Chondrogenic Induction Medium (Lonza; DMEM, dexamethasone, ascorbate, insulin-transferrin-selenium [ITS supplement], gentamycin-amphotericin [GA-1000], sodium pyruvate, proline and L-glutamine). TGF-−3 (10 ng/mL) was used as a positive control for differentiation while negative control wells were treated with 75 nL DMSO for normalization and calculating EC50 values. For the 384 well assay, serial dilution (1:3, 8-point dose-response curves from 5000 nM to 2.2 nM) and compound transfer was performed using the ECHO 550 (Labcyte, Sunnyvale, Calif.) into 384-well clear bottom assay plates (Greiner Bio-One) with appropriate DMSO backfill for a final DMSO concentration of 0.03%. hMSCs were plated at 8,000 cells/well in 80 μL/well Incomplete Chondrogenic Induction Medium (Lonza; DMEM, dexamethasone, ascorbate, insulin-transferrin-selenium [ITS supplement], gentamycin-amphotericin [GA-1000], sodium pyruvate, proline and L-glutamine). TGF-β3 (10 ng/mL) was used as a positive control for differentiation while negative control wells were treated with 25 nL DMSO for normalization and calculating EC50 values. Cells were incubated at 37° C. and 5% CO2 for 6 days. To image chondrogenic nodules, the cells were fixed using 4% formaldehyde (Electron Microscopy Sciences), and stained with 2 μg/mL Rhodamine B (Sigma-Aldrich) and 20 μM Nile Red (Sigma-Aldrich) [Johnson K., et. al, A Stem Cell-Based Approach to Cartilage Repair, Science, (2012), 336(6082), 717-721]. The nodules imaged (25 images per well for 96 well plates and 9 images per well for 384 well plates at 10× magnification) by excitation at 531 nm and emission at 625 nm and quantified using the CellInsight CX5 (Thermo Scientific). Area of nodules in each well was normalized to the average of 3 DMSO treated wells on the same plate using Excel (Microsoft Inc.). The normalized averages (fold change over DMSO) of 2 or 3 replicate wells for each compound concentration were calculated. Due to solubility limitations of some of the compounds, curve fitting was incomplete leading to inaccurate EC50 determinations.
Using TGF-β3 as a positive control, the concentration of representative compounds required to induce 50% levels of chondrogenesis is reported. In addition, the maximum activity of each compound and the respective dose that each compound reached maximum chondrogenesis activity is reported.

In another experiment the test system is IL-6 (THP-1 cells). Nature of the experiment: Inhibition of IL-6 in LPS-stimulated THP-1 monocytes (HTRF). Type of experiment: cell-based. The settings on record: Homo sapiens; for EC50: LPS 500 ng/mL, IL-6 by HTRF; for inhibition at 10 µM: LPS stimulated, IL-6, at 10 μM, read-out: percent inhibition at 10 μM (given for EC50 of >10 μM). Summed up:
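THP-1 cells, serum-starved in 1% FBS for 24 h, were pre-incubated 2 h with compound (10-point, 1:3 from 10 μM, 0.1% DMSO), then stimulated with 500 ng/mL LPS for 22 h at 37 °C. IL-6 was quantified by HTRF 665/620 ratio. EC50 was fitted from DMSO-normalized data; above 10 μM, % inhibition at 10 μM is given.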

A value given as a limit tells only on which side of the number the result lay.

Consider `CCNCc1cncc(-c2ccc3[nH]nc(-c4nc5c(-c6cc(F)cc(NCCN(C)C)c6)ccnc5[nH]4)c3n2)c1` [Compound 454, N^1-(3-(2-(5-(5-((ethylamino)methyl)pyridin-3-yl)-1H-pyrazolo[4,3-b]pyridin-3-yl)-3H-imidazo[4,5-b]pyridin-7-yl)-5-fluorophenyl)-N^2,N^2-dimethylethane-1,2-diamine], for which, in experiment [1], the Emax is 149% and the EC50 worked out at 21 nM. In the experiment on IL-6 (THP-1 cells), the EC50 is above 10000 nM and the inhibition (in general, the share of the control response that was lost under treatment) at 10 µM came to 36.4%.

Regarding `CCCCC(=O)Nc1cncc(-c2ccc3[nH]nc(-c4nc5c(-c6cc(F)cc(NCCN(C)C)c6)ccnc5[nH]4)c3n2)c1` [Compound 467, N-(5-(3-(7-(3-((2-(dimethylamino)ethyl)amino)-5-fluorophenyl)-3H-imidazo[4,5-b]pyridin-2-yl)-1H-pyrazolo[4,3-b]pyridin-5-yl)pyridin-3-yl)pentanamide], in experiment [1], the Emax came to 71% and the EC50 worked out at 10 nM. Also, in the experiment on IL-6 (THP-1 cells), the EC50 is above 10000 nM and the inhibition at 10 µM was found to be 23%.

As to `CCCC(=O)Nc1cncc(-c2ccc3[nH]nc(-c4nc5c(-c6cc(F)cc(CNS(C)(=O)=O)c6)ccnc5[nH]4)c3n2)c1` [Compound 493, N-(5-(3-(7-(3-fluoro-5-(methylsulfonamidomethyl)phenyl)-3H-imidazo[4,5-b]pyridin-2-yl)-1H-pyrazolo[4,3-b]pyridin-5-yl)pyridin-3-yl)butyramide], the Emax in experiment [1] is 43%. Besides, in the experiment with IL-6 (THP-1 cells), the EC50 is above 10000 nM and the inhibition at 10 µM stood at 23.4%.

With `Fc1cccc(-c2ccnc3[nH]c(-c4n[nH]c5ccc(C6CCNCC6)nc45)nc23)c1` [Compound 505, 3-(7-(3-fluorophenyl)-3H-imidazo[4,5-b]pyridin-2-yl)-5-(piperidin-4-yl)-1H-pyrazolo[4,3-b]pyridine], in experiment [1], the Emax was 51% and the EC50 was found to be 10 nM. Also, the EC50 in the experiment on IL-6 (THP-1 cells) was found to be 3480 nM.

Consider `Fc1cccc(-c2ccnc3[nH]c(-c4n[nH]c5ccc(-c6cn[nH]c6)nc45)nc23)c1` [Compound 507, 3-(7-(3-fluorophenyl)-3H-imidazo[4,5-b]pyridin-2-yl)-5-(1H-pyrazol-4-yl)-1H-pyrazolo[4,3-b]pyridine], for which, in experiment [1], the Emax amounted to 57% and the EC50 stood at 7 nM. Further, in the experiment with IL-6 (THP-1 cells), the EC50 is above 10000 nM and the inhibition at 10 µM turned out to be 35.9%.

Turning to `Cn1cc(-c2ccc3[nH]nc(-c4nc5c(-c6cccc(F)c6)ccnc5[nH]4)c3n2)cn1` [Compound 508, 3-(7-(3-fluorophenyl)-3H-imidazo[4,5-b]pyridin-2-yl)-5-(1-methyl-1H-pyrazol-4-yl)-1H-pyrazolo[4,3-b]pyridine], in experiment [1], the Emax turned out to be 43%. Also, in the experiment on IL-6 (THP-1 cells), the EC50 is above 10000 nM and the inhibition at 10 µM was found to be 15.5%.

With `Fc1cccc(-c2ccnc3[nH]c(-c4n[nH]c5ccc(-c6cncc(OC7CCNCC7)c6)nc45)nc23)c1` [Compound 512, 3-(7-(3-fluorophenyl)-3H-imidazo[4,5-b]pyridin-2-yl)-5-(5-(piperidin-4-yloxy)pyridin-3-yl)-1H-pyrazolo[4,3-b]pyridine], in experiment [1], the Emax turned out to be 93% and the EC50 turned out to be 2 nM. Besides, in the experiment with IL-6 (THP-1 cells), the EC50 is above 10000 nM and the inhibition at 10 µM turned out to be 35.7%.
